Reference: US20240139226A1, “A COMPOSITION FOR PROMOTING GLP-1 SECRETION” (priority 2021, published 2024)
Where two headings read alike, the source gives them in different places.

Tested on: NCI-H716 cells
Assay: GLP-1 secretion-promoting effect using NCI-H716 cells (GLP-1 in supernatant by ELISA)
Assay type: cell-based, Human
Conditions: for activity at 125 µM: test sample alone at 0.125 mM; for activity at 25 µM: test sample alone at 0.025 mM; for GLP-1 secretion compared to Control: Experiment 1-3, text on Table 1, mGN 2.5 mM, flavor component 0.25 mM; for activity at 2500 µM: test sample alone at 2.5 mM; for activity at 25000 µM: test sample alone at 25 mM
Procedure: GLP-1 secretion-promoting effect was evaluated by the following experiment using NCI-H716 cells (Human intestinal tract-derived cell line; purchased from ATCC).
NCI-H716 cells were cultured at 37° C. with 5% CO2 using RPMI1640 (supplemented with 10% Fetal Bovine Serum, manufactured by Sigma) as a cell culture medium for passage. After culturing, cells were suspended in DMEM medium (supplemented with 10% Fetal Bovine Serum; containing 4.5 mg/mL of glucose; manufactured by Shimadzu Diagnostics Corporation, Tokyo, Japan) and added to a Matrigel (120 μL/well; manufactured by Corning Incorporated, NY, USA)-coated 48-well plate at a cell density of 1.2×10^5 cells/well. After incubation for 2 days, the cells were washed twice with 20 mM HEPES-containing HBSS (Hank's Balanced Salt Solution) buffer. After removal of the washing buffer, 20 mM HEPES-HBSS (supplemented with 0.01% BSA) containing the above-described test samples was added and the cells were incubated for 2 hours. After incubation, the supernatant was collected into a microcentrifuge tube containing diprotin-A (DPP4 inhibitor, manufactured by Abcam plc., Cambridge, UK) and protease inhibitors (cOmplete™, EDTA-free Protease Inhibitor Cocktail, Roche, Basel, Switzerland; Catalogue No. 1187358001). After centrifugation, the supernatant was stored at −80° C. until it was used for the GLP-1 measurement. The amount of GLP-1 in the medium was measured by ELISA method using GLP-1 Active Form Assay Kit (manufactured by Immuno-Biological Laboratories Co, Ltd., Gunma, Japan). […] As a positive control for measuring cytotoxicity, the cells added with 0.1% Triton X-100/PBS (−) (Phosphate Buffered Saline) were used. The LDH activity in the cell culture supernatant of the positive control was set as 100% and the ratio to the positive control (LDH activity in the cell culture supernatant of sample/LDH activity in the positive control) was calculated as the cytotoxicity rate. Herein, it was judged that a sample had no cytotoxicity when the cytotoxicity rate was within ±2% compared to that of “control (cells cultured with 20 mM HEPES-HBSS without a test sample, instead of 20 mM HEPES-HBSS containing a test sample; shown as “No Addition” in Table 1)”.
The amount of GLP-1 secretion was determined as a relative value to the average value of the GLP-1 secretion amount obtained for a control (cells cultured with 20 mM HEPES-HBSS without a test sample instead of 20 mM HEPES-HBSS containing a test sample; shown as “No Addition” in Table 1). In Table 1, the GLP-1 secretion amounts when mGN and flavor components were used separately and the GLP-1 secretion amounts when mGN and flavor components were used in combination were shown. […] The synergistic effect of mGN and flavor components in promoting GLP-1 secretion was judged based on the following criteria.
Synergistic Effect: Theoretical Value<(is less than) Measured Value • Theoretical Value=([…])×100+(B/D−1)×100 • Measured Value=(C/D-1)×100
The theoretical value and the measure value were compared based on the above formula. When the measured value was higher than the theoretical value, it was judged that there was a synergistic effect, which was indicated as “O” in the table.
The presence or absence of the synergistic effect by the combination of mGN and thymol was judged based on the formula used in Experiment 1-3. When the measured value was higher than the theoretical value, it was judged that there was a synergistic effect and it was indicated as “O” in the table. Furthermore, a Tukey-Kramer test was performed. When there was a significant difference (Risk Rate p<0.05) between the GLP-1 secretion amount of the combination of mGN and thymol (C) and each of the GLP-1 secretion amount of Control (D), mGN alone (A), and thymol alone (B), it was indicated “⊚” in the below table.

[1] = Homo sapiens, NCI-H716, 2 h, Table 1, Experiment 1-3, test sample alone at 0.25 mM, Control (No Addition) = 100, 2 hours, read-out: GLP-1 secretion amount, Independent Use (relative value to Control)
[2] = Experiment 1-3, flavor component alone 0.25 mM
[3] = Homo sapiens, NCI-H716, 2 h, Table 4, Experiment 4, Control = 100, N=3, read-out: GLP-1 secretion amount, Independent Use (relative value to Control)
[4] = Homo sapiens, NCI-H716, 2 h, Table 4, Experiment 4, test sample alone at 0.25 mM, Control = 100, N=3, read-out: GLP-1 secretion amount, Independent Use (relative value to Control)
[5] = Table 1, Experiment 1-3, test sample alone at 0.25 mM, Control (No Addition) = 100, 2 hours
[6] = Homo sapiens, NCI-H716, 2 h, Table 3, Experiment 3, Control = 100, N=3, read-out: GLP-1 secretion amount, Independent Use (relative value to Control)
[7] = Homo sapiens, NCI-H716, 2 h, Table 2, Experiment 2, Control = 100, N=3, read-out: GLP-1 secretion amount, Independent Use (relative value to Control)
[8] = Homo sapiens, NCI-H716, 2 h, Table 6, Experiment 6, Control = 100, N=3, read-out: GLP-1 secretion amount, Independent Use (relative value to Control)

CC1=CCC2CC1C2(C)C (stereo not drawn) [α-Pinene, α-pinene]
activity at 250 µM [1]: 136%

C=C1CCC2CC1C2(C)C (stereo not drawn) [β-Pinene, β-pinene]
GLP-1 secretion promoting effect when used alone (in words) [2]: no GLP-1 secretion promoting effect | activity at 250 µM [1]: 100%

C=C(C)[C@@H]1CCC2=CC(=O)C[C@@H](C)[C@]2(C)C1 [Nootkatone, nootkatone]
GLP-1 secretion when used alone (in words) (Experiment 4, alone, concentrations of Table 4): promoted in a nootkatone concentration-dependent manner | activity at 250 µM [1]: 457% | activity at 12.5 µM (Homo sapiens, NCI-H716, 2 h, Table 4, Experiment 4, test sample alone at 0.0125 mM, Control = 100, N=3, read-out: GLP-1 secretion amount, Independent Use (relative value to Control)): 70% | activity at 37.5 µM (Homo sapiens, NCI-H716, 2 h, Table 4, Experiment 4, test sample alone at 0.0375 mM, Control = 100, N=3, read-out: GLP-1 secretion amount, Independent Use (relative value to Control)): 111% | activity at 125 µM [3]: 350% | activity at 250 µM [4]: 464%

CNc1ccccc1C(=O)OC [Methyl N-methyl anthranilate, methyl N-methyl anthranilate]
GLP-1 secretion promoting effect when used alone (in words) [2]: no GLP-1 secretion promoting effect | GLP-1 secretion amount, Independent Use (relative value to Control) [5]: 73

C=C1C2CCC(C2)C1(C)C (centres unmarked) [Camphene, camphene]
activity at 250 µM [1]: 135%

Cc1ccc(C(C)C)c(O)c1 [Thymol, thymol]
GLP-1 secretion promoting effect when used alone (in words) [2]: no GLP-1 secretion promoting effect | GLP-1 secretion-promoting effect when used alone (in words) (Experiment 2, alone at a concentration of 0.25 mM): no GLP-1 secretion-promoting effect was observed | GLP-1 secretion promoting effect when used alone (in words) (Experiment 3, alone, 0.0067 mM to 0.125 mM): no GLP-1 secretion promoting effect | activity at 250 µM [1]: 82% | activity at 6.7 µM (Homo sapiens, NCI-H716, 2 h, Table 3, Experiment 3, test sample alone at 0.0067 mM, Control = 100, N=3, read-out: GLP-1 secretion amount, Independent Use (relative value to Control)): 34% | activity at 25 µM [6]: 61% | activity at 125 µM [6]: 65%

CC(C)=CCCC(C)CC=O (centres unmarked) [Citronellal, citronellal, reference compound]
activity at 250 µM [1]: 113%

CC(=O)/C=C/C1=C(C)CCCC1(C)C [β-Ionone, β-ionone]
GLP-1 secretion amount, Independent Use (relative value to Control) [5]: 157

CC1O[C@@H](OC2[C@H](Oc3cc(O)c4c(c3)OC(c3ccc(O)cc3)CC4=O)OC(CO)[C@@H](O)[C@H]2O[C@H]2OC(CO)[C@@H](O)[C@@H](O)C2O)C(O)[C@@H](O)[C@H]1O (stereo partly drawn) [mGN, 3″-α-monoglucosyl naringin]
GLP-1 secretion compared to Control: approximately 1.6 times | GLP-1 secretion when used alone (in words) (Experiment 2, alone, 0.025 mM to 150 mM): promoted to some extent in a mGN concentration-dependent manner | activity at 2500 µM (Homo sapiens, NCI-H716, 2 h, Table 1, Experiment 1-3, Control (No Addition) = 100, 2 hours, read-out: GLP-1 secretion amount, Independent Use (relative value to Control)): 164% | activity at 25 µM [7]: 45% | activity at 250 µM (Homo sapiens, NCI-H716, 2 h, Table 2, Experiment 2, test sample alone at 0.25 mM, Control = 100, N=3, read-out: GLP-1 secretion amount, Independent Use (relative value to Control)): 63% | activity at 2500 µM [7]: 121% | activity at 25000 µM [7]: 427% | activity at 25000 µM [6]: 521% | activity at 25 µM [3]: 39% | activity at 250 µM [4]: 63% | activity at 2500 µM [3]: 85% | activity at 12500 µM (Homo sapiens, NCI-H716, 2 h, Table 4, Experiment 4, test sample alone at 12.5 mM, Control = 100, N=3, read-out: GLP-1 secretion amount, Independent Use (relative value to Control)): 502% | activity at 25 µM (Homo sapiens, NCI-H716, 2 h, Table 5, Experiment 5, Control = 100, N=3, read-out: GLP-1 secretion amount, Independent Use (relative value to Control)): 39% | activity at 25 µM [8]: 53% | activity at 25000 µM [8]: 457%

C=C(C)[C@@H]1CCC2=CCC[C@@H](C)[C@]2(C)C1 [Valencene, valencene]
GLP-1 secretion amount, Independent Use (relative value to Control) [5]: 121

C=C1CCC2(C(C)C)CC12 (centres unmarked) [Sabinene, sabinene]
GLP-1 secretion promoting effect when used alone (in words) [2]: no GLP-1 secretion promoting effect | activity at 250 µM [1]: 101%

COC(=O)c1ccccc1N [Methyl anthranilate, methyl anthranilate]
GLP-1 secretion promoting effect when used alone (in words) [2]: no GLP-1 secretion promoting effect | activity at 250 µM (Homo sapiens, NCI-H716, 2 h, read-out: GLP-1 secretion amount, Independent Use (relative value to Control)): 73%

CC(C)=CCCC(C)=CC=O [Citral, citral, reference compound]
GLP-1 secretion compared to Control: approximately 2.4 times | activity at 250 µM [1]: 246%

C=C1CC/C=C(\C)CC[C@@H]2[C@@H]1CC2(C)C [β-Caryophyllene, β-caryophyllene]
GLP-1 secretion amount, Independent Use (relative value to Control) [5]: 111
